In PubChem BioAssay AID1996:
Converted amounts (≈) assume the structure as drawn.

Details: buffer; pH 7.4; 200.0 µM

SMILES | solubility kinetic
COc1cc(C(=O)N2CCCc3ccccc32)c([N+](=O)[O-])cc1OC | > 51.4 µg/mL
O=C(CCN1CCN(c2ccccc2F)CC1)Nc1ccc(F)cc1 | 10.4 µg/mL (≈ 30.1 µM)
CCCCC(=O)Nc1ccc(NC(=O)c2ccco2)cn1 | 36.9 µg/mL (≈ 128 µM)
CCN(C(=O)c1cccnc1SC)C12CC3CC(CC(C3)C1)C2 | 2.3 µg/mL (≈ 6.96 µM)
COC(=O)CN=Cc1c(O)n(-c2ccc(Cl)cn2)c(=O)c2ccccc12 | > 55.8 µg/mL
COc1cc(C(=O)N2C[C@H]3C[C@@H](C2)c2cccc(=O)n2C3)cc(OC)c1OC | > 57.7 µg/mL
COc1cc(/C=C/c2ccc3cccc(O)c3n2)cc(OC)c1OC | < 0.7 µg/mL
CCc1ccccc1NC(=S)NCCSc1ccc(Cl)cc1 | 1.8 µg/mL (≈ 5.13 µM)
O=C(Nc1ccc(Cl)c(Cl)c1)Nc1ccon1 | 1.6 µg/mL (≈ 5.88 µM)
COc1ccc2nc(NC(=O)c3ccccc3F)sc2c1 | 0.5 µg/mL (≈ 1.65 µM)
O=C(COC(=O)CSc1ccc([N+](=O)[O-])cc1)NCC1CCCO1 (stereo not given) | > 53.2 µg/mL
COc1cc(N2CCOCC2)ccc1C=C(C#N)C#N | 0.7 µg/mL (≈ 2.6 µM)
CCCCN(C(=O)c1cnccn1)c1c(N)n(CCC)c(=O)[nH]c1=O | 46.9 µg/mL (≈ 135 µM)
CC(C(=O)N1CCCC1)N1CCN(c2ccccc2O)CC1 (stereo not given) | > 45.5 µg/mL
CSc1nc(-c2ccccc2)cc(C)c1C#N | < 0.3 µg/mL
CC1CCN(C(=O)c2ccc(CNS(=O)(=O)c3ccc(C(C)(C)C)cc3)cc2)CC1 | 8.3 µg/mL (≈ 19.4 µM)
OC(C#CCN1CCCC1)(c1ccccc1)c1cccnc1 (stereo not given) | > 43.9 µg/mL
C/C(=C\c1ccccc1F)C(=O)c1c(C)cc(C)[nH]c1=O | > 42.8 µg/mL
O=C(Nc1cc2c3c(c1)CC(=O)N3CCC2)c1cccc(F)c1 | 10.5 µg/mL (≈ 33.8 µM)
COc1ccc(CNC(=O)CC2Sc3ccccc3NC2=O)cc1 (stereo not given) | 1.6 µg/mL (≈ 4.67 µM)
Cc1cc(C)c(NC(=O)C2=COCCO2)c(C)c1 | > 37.1 µg/mL
COc1cc(NS(=O)(=O)c2ccc(NC(=S)NC(C)=O)cc2)nc(OC)n1 | > 61.7 µg/mL

SMILES | solubility kinetic
COc1cccc(NC(=O)c2ccccc2NC(=O)c2ccncc2)c1 | 29.1 µg/mL (≈ 83.8 µM)
CCc1nc(C(N)=O)c2[nH]c(=O)n(-c3ccccc3F)c2n1 | 10.2 µg/mL (≈ 33.9 µM)
O=C(CSc1nc(-c2ccccc2)cc(=O)[nH]1)Nc1ccccc1 | 1.3 µg/mL (≈ 3.85 µM)
CC1(C)C(c2ccccc2)=NC(c2ccc(Br)cc2)N1O (stereo not given) | 3.7 µg/mL (≈ 10.7 µM)
CCOCCc1c(O)[nH]c(=S)[nH]c1=O | > 32.4 µg/mL
COc1ccc(CNC(=O)COC(=O)C2(C)CC2(Cl)Cl)cc1 (stereo not given) | > 51.9 µg/mL
Cc1ccc2[nH]cc(CCNC(=O)C3CCCCC3)c2c1 | 34.2 µg/mL (≈ 120 µM)
O=C(c1ccc([N+](=O)[O-])cc1)N(c1ccccn1)c1ccccn1 | > 48 µg/mL
CN1CC(C(=O)O)Cc2c1ccc1ccccc21 (stereo not given) | 31.7 µg/mL (≈ 131 µM)
Cc1cccc(N2CCN(C(=O)c3ccc4c(c3)OCCO4)CC2)c1C | 15.7 µg/mL (≈ 44.5 µM)
CCC(=O)Nc1c(-c2ccc3ccccc3c2)nc2ccccn12 | 45.7 µg/mL (≈ 145 µM)
Cc1ccc(NS(=O)(=O)c2ccc(Cl)s2)nc1 | 33.6 µg/mL (≈ 116 µM)
Cc1cccc(-n2c(-c3ccccc3)nc3ccccc3c2=O)n1 | > 47 µg/mL
O=c1cc(C(F)(F)F)[nH]c2ccc(C(F)(F)F)cc12 | > 42.2 µg/mL
CCC1Sc2ccccc2N(CC(=O)NC2CCCCC2)C1=O (stereo not given) | > 49.9 µg/mL
CNC(=O)C1=C(C)Nc2nc3ccccc3n2C1c1ccc(F)cc1 (stereo not given) | 48.9 µg/mL (≈ 145 µM)
COc1cc(OC)cc(C(=O)NC2CC3CCC(C2)N3C)c1 (stereo not given) | 38.4 µg/mL (≈ 126 µM)
CC(NC(=O)C12CC3CC(C)(CC(C)(C3)C1)C2)c1ccncc1 (stereo not given) | 41.9 µg/mL (≈ 134 µM)
COc1ccc(Nc2nnc(C)c(=O)[nH]2)c(OC)c1 | > 39.3 µg/mL
COC(=O)c1ccccc1NC(=O)CNC(=O)c1ccc(OC)cc1 | 45 µg/mL (≈ 131 µM)
C/C(=N/OC(=O)c1ccc(Br)cc1)c1ccc(C)cc1 | < 0.7 µg/mL
O=C(NCCNc1ccccc1[N+](=O)[O-])c1cc(F)c(F)cc1Cl | 1.2 µg/mL (≈ 3.37 µM)

SMILES | solubility kinetic
O=C(COC(=O)C1CCC1)NCCc1ccc(Cl)cc1Cl | > 49.5 µg/mL
CCn1c(=S)[nH]c2cc(C(=O)O)ccc21 | > 33.3 µg/mL
CCOc1ccccc1Nc1nnc(SCC(=O)NC2CC2)s1 | > 52.6 µg/mL
CN(c1ccc(F)cc1)S(=O)(=O)c1ccc(Cl)c(C(=O)OCC(=O)NC2CC2)c1 | 11.7 µg/mL (≈ 26.5 µM)
COc1ccc(C(=O)NC(=S)NCc2ccco2)cc1 | 4.6 µg/mL (≈ 15.8 µM)
CC(C)(C)NC(=O)NC(=O)CN1CCN(c2ccccc2O)CC1 | 44.8 µg/mL (≈ 134 µM)
COCCN(CC(=O)Nc1cccc(C)c1C)C(=O)c1oc2ccccc2c1C | 7.4 µg/mL (≈ 18.8 µM)
CC1(C)CC(NC(=O)c2cc(Cl)ccc2Cl)CC(C)(C)N1 | > 49.4 µg/mL
C=CCN=C1S/C(=C/c2cccc([N+](=O)[O-])c2)C(=O)N1CC=C | 1.5 µg/mL (≈ 4.55 µM)
CC(O)Cn1c(N2CCCC2)nc2c1c(=O)[nH]c(=O)n2C (stereo not given) | 41.4 µg/mL (≈ 141 µM)
COc1ccccc1CC(=O)N1CCN(S(=O)(=O)c2ccccc2F)CC1 | > 58.9 µg/mL
COc1ccc(NC(=S)Nc2ccc(OC(F)F)cc2)cn1 | 35 µg/mL (≈ 108 µM)
Cc1ccc(O)c(NC(=O)c2cc(C)no2)c1 | > 34.8 µg/mL
COc1ccccc1/C=C/c1nc(C#N)c(N(C)C)o1 | 0.4 µg/mL (≈ 1.49 µM)
O=C(Cn1c(CO)nc2ccccc21)NC1CCCCCC1 | > 45.2 µg/mL
CCN(C(=O)CN1C(=S)NC(C)(C)CC1C)c1ccc(C)c(C)c1 (stereo not given) | > 52.1 µg/mL
O=C(NC(=S)N1CCN(c2ccccc2)CC1)c1c(F)cccc1F | > 54.2 µg/mL
CCCN1CCN(CC(=O)Nc2nnc(CC)s2)CC1 | > 44.6 µg/mL
C=CCNC(=S)N1CCC(C(N)=O)CC1 | > 34.1 µg/mL
COc1ccccc1N1CCN(Cc2ccc(C(=O)O)cc2)CC1 | 42.2 µg/mL (≈ 129 µM)
O=C(NCCCN1CCCC1=O)c1ccc(Cl)c(Cl)c1 | 45.9 µg/mL (≈ 146 µM)
O=C(Nc1ccc(O)cc1)c1ccccc1OCc1ccccc1 | < 0.7 µg/mL

SMILES | solubility kinetic
C=CCn1c(SCC(N)=O)nc2nc3c(cc2c1=O)COC(C)(C)C3 | 46.6 µg/mL (≈ 129 µM)
O=C1NC(=S)N/C1=C/c1cccnc1 | > 30.8 µg/mL
O=C(Nc1nccs1)[C@@H]1CCCN1C(=O)c1cccs1 | 30.6 µg/mL (≈ 99.5 µM)
Cc1ccc(C(=O)NC2CCCCNC2=O)cc1 (stereo not given) | 33.3 µg/mL (≈ 135 µM)
O=C(CSc1cccc[n+]1[O-])NCC1CCCCC1 | > 42.1 µg/mL
O=C(Nc1ccccc1-c1ccccc1)c1ccccc1 | > 41 µg/mL
Cc1sc2ncnc(NCCCN3CCCC3=O)c2c1C | > 45.7 µg/mL
Cc1[nH]nc(SCC(=O)N2CCOCC2)c1[N+](=O)[O-] | > 42.9 µg/mL
O=C(O)c1cc(-c2ccccc2)n(-c2ccc(F)cc2)n1 | > 42.3 µg/mL
CSCC[C@H](NC(=O)NC1CCCC1)C(=O)O | > 39.1 µg/mL
O=C(NCC1CCCO1)c1cccc2ccccc12 (stereo not given) | > 38.3 µg/mL
O=C(CSc1ccc(F)cc1)NC12CC3CC(CC(C3)C1)C2 | 1.1 µg/mL (≈ 3.44 µM)
CN(C)Cc1ccccc1CCc1ccccc1.Cl | 23.9 µg/mL
O=c1c2c3c(sc2nc2n1CCCCC2)C(O)CCC3 (stereo not given) | > 43.6 µg/mL
Cc1ccc(-c2cc(=O)[nH]c(NCc3ccccc3)n2)cc1 | 0.3 µg/mL (≈ 1.03 µM)
COc1ccc(NC(=S)Nc2cccc(C)n2)cc1 | < 0.2 µg/mL
CC(=O)C(Cc1ccccc1)NC(=O)COc1ccc2c(c1)OCO2 (stereo not given) | > 51.2 µg/mL
Br.COc1ccc(C2=CSC3=NCCN23)cc1Br | 54.4 µg/mL
O=S(=O)(Nc1nc2ccc(Cl)cc2s1)c1cccs1 | 12.2 µg/mL (≈ 36.9 µM)
